These results are taken from US4075409A, “Benzophenone derivatives” (Cassella Farbwerke Mainkur Aktiengesellschaft, priority 1973, dated 1978).

Structures can show the parent of a compound that is named as a salt. Where only a bound is given, the exact number is not on record here.

One data set concerns albino mice. Nature of the data set: climbing test, central depressant (sedative) action on albino mice. In kind it is in vivo. The following applies: Mus musculus, po, read-out: Central depressant action in % (percentage of animals which no longer embark on the climbing work); for responders at 8 mg/kg: 8.0 mg/kg orally. As for the experimental part: The pharmacological examination of the central depressant (sedative) action was carried out on albino mice with the aid of the climbing test described by P. K. KNEIP: Arch. int. pharmacodyn 126, 238 (1960) and R. DOMENJOZ and W. THEOBALD: Arch. int. pharmacodyn 120, 450 (1959).
In the final column of the table, the percentage of the experimental animals which no longer embark on the climbing work, which is normally readily undertaken, is given under the heading "Central depressant action in %".
(§1) The benzophenone derivatives were tested in the form of their hydrochlorides.

Data set [1] in a line: LD50 mice intraperitoneally. Conditions: mouse, in vivo, ip, benzophenones as hydrochlorides. As to the method:
as §1

Turning to `CC(Cc1ccccc1)NCC(=O)N(C)c1ccc([N+](=O)[O-])cc1C(=O)c1ccccc1` (racemic) [DL-2-(5-Phenyl-N-methyl-4-methyl-3-aza-pentanamido)-5-nitrobenzophenone hydrochloride], the responders at 8 mg/kg with albino mice (as hydrochloride) was 50%. Besides, the LD50 – broadly, the dose at which mortality reaches 50% – in data set [1] was found to be 44 mg/kg.
In the same order, the values of `CC(Cc1ccccc1)NCC(=O)N(C)c1ccc(Cl)cc1C(=O)c1ccccc1Cl` (racemic) [DL-2-(5-phenyl-N-methyl-4-methyl-3-aza-pentanamido)-2',5-dichlorobenzophenone hydrochloride] are 70% and 24 mg/kg.
Take `CC(Cc1ccccc1)NCC(=O)N(C)c1ccc(Cl)cc1C(=O)c1ccccc1` (racemic) [DL-2-(5-phenyl-N-methyl-4-methyl-3-aza-pentanamido)-5-chlorobenzophenone hydrochloride]: the responders at 8 mg/kg in the data set on albino mice (as hydrochloride) came to 40%. Moreover, in data set [1], the LD50 was found to be 240 mg/kg.
Regarding `CCOC(=O)NCC(=O)N(C)c1ccc([N+](=O)[O-])cc1C(=O)c1ccccc1` [2-(3-Ethoxycarbonyl)-N-methyl-3-aza-propanamido)-5-nitro-benzophenone], the responders at 10 mg/kg with albino mice (10.0 mg/kg orally, as hydrochloride) was 70%. Besides, the median lethal dose (LD50) in data set [1] was 500 mg/kg.
For `CCOC(=O)NCC(=O)N(C)c1ccc(Cl)cc1C(=O)c1ccccc1Cl` [2-(3-Ethoxycarbonyl-N-methyl-3-aza-propanamido)-2',5-dichlorobenzophenone], the responders at 8 mg/kg with albino mice (as hydrochloride) was determined as 90%. In data set [1], this molecule gave an LD50 of 240 mg/kg.
For `CN(CC(=O)Nc1ccc(Cl)cc1C(=O)c1ccccc1)C(=S)Nc1ccccc1` [2-(3-Phenylaminothiocarbonyl-3-aza-3-methyl-propanamido)-5-chlorobenzophenone], in that order: 50% and greater than 1000 mg/kg.
For the molecule `CCOC(=O)NCC(=O)N(C)c1ccc(Cl)cc1C(=O)c1ccccc1.Cl` [2-(3-ethoxycarbonyl-N-methyl-3-aza-propanamido)-5-chlorobenzophenone hydrochloride], the responders at 4 mg/kg in the data set on albino mice (4.0 mg/kg orally, as hydrochloride) worked out at 30%. Also, the median lethal dose (LD50) in data set [1] turned out to be 270 mg/kg.
For the molecule `CCCCNC(=O)CCN(CCCC)CC(=O)N(C)c1ccc([N+](=O)[O-])cc1C(=O)c1ccccc1` [2-(5-n-Butylaminocarbonyl-N-methyl-3-n-butyl-3-aza-pentanamido)-5-nitro-benzophenone], in the data set with albino mice (as hydrochloride), the responders at 8 mg/kg was found to be 50%. The molecule further yielded an LD50 in data set [1] of 500 mg/kg.
As to `CCCC(C)(COC(N)=O)COC(N)=O` [Meprobamate, reference compound], the responders at 70 mg/kg in the data set on albino mice (70 mg/kg orally, comparison preparation) amounted to 50%.
